{"source": "patent US20110287936A1", "about": "“GENE SWITCH COMPOSITIONS AND METHODS OF USE” (priority 2010, published 2011)", "key": {"[1]": {"tested_on": "tetA promoter (PtetA)-lacZ reporter in E. coli strain KM3", "assay_type": "cell-based", "settings": "L1 hits, 20 μg/ml"}, "[2]": {"tested_on": "BSV:tetOp or 35S:tetOp::dsRed with Ubi:ESR(3E3)", "assay": "Maize callus RFP de-repression on chlorsulfuron selection", "assay_type": "in vivo", "from_the_text": "(§1) The BSV::tetOp promoter and the MP1::tetOp promoter were synthesized and cloned into expression cassettes driving expression of the DsRED (RFP) gene for testing. For all comparisons of RFP expression, side-by-side comparisons were made within experiment by taking micrographs of the tissue at the same exposure and qualitatively ranking fluorescence intensity, assigning the scores in the table below. The DsRED protein is very stable (has a relatively long half-life), and even with low expression levels in the cell can accumulate over time.\nMaize immature embryos were transformed with Agrobacterium as generally described in Example 5D. Transformants were generated that contained one of the two T-DNAs shown below: • RB-BSV:tetOp::Adh Intron::dsRed+ALS:HRA+Ubi:ESR(3E3)-LB • RB-35S:tetOp::Adh intron::dsRed+ALS:HRA+Ubi::ESR(3E3)-LB\nSelection of transgenic events was performed using 30, 100, or 500 μg/L chlorsulfuron."}, "[3]": {"tested_on": "35S PRO:3xTetOp:dsRED reporter with ESR(L13-2-23)", "assay": "Rice callus RFP induction by sulfonylureas", "assay_type": "in vivo", "settings": "for RFP Score: 20 hours, rice callus", "method": "Mature seed of rice were surface sterilized and placed on callus induction medium (Chu (N6) salts, Eriksson's vitamins, 0.5 mg/L thiamine, 2 mg/L 2,4-D, 2.1 g/L proline, 30 g/L sucrose, 300 mg/L casein hydrolysate, and 100 mg/L myo-inositol, adjusted to pH 5.8). After one week, callus was transformed using Agrobacterium LBA4404, delivering the following T-DNA: • RB-35S PRO:3xTetOp:dsRED::pinII+35S PRO::Adh intron::ESR(L13-2-23)::UBI TERM+Sb-ALS PRO::HRA::pinII-LB\nTransgenic events were visually selected as […] calli growing on 100 PPB ethametsulfuron. […] Non-fluorescing events were then transferred to plates of medium containing varying amounts of sulfonylureas (SU). For the control, there was no SU, with additional treatments containing 100 or 500 ppb chlorsulfuron, and 100 or 500 ppb ethametsulfuron, After 20 hours of the induction treatment, micrographs were taken at the same exposure and scored (see Example 7 for scoring criteria) as shown in the table below\nas §1"}, "[4]": {"tested_on": "BSV(AY) PRO::tetOp::ODP2 with ESR(3E3)", "assay": "Inducible callus initiation from maize leaf pieces", "assay_type": "in vivo", "settings": "100 mg/L chlorsulfuron, two weeks", "method": "Immature maize embryos from maize inbred PHN46 were transformed as describe in Example 5D using Agrobacterium comprising the following: • RB-BSV(AY) PRO::tetOp::Adh1 Intron::ODP2::pinII+35S ENH::ALS PRO::HRA::pinII+Ubi Pro::ESR(3E3)::pinII-LB.\nEvents were selected on 100 μg/l chlorsulfuron, and plantlets were regenerated in the absence of the SU compound. When the plantlets were approximately 20 cm tall, the leaves were cut into approximately 2-4 mm cross-sections and placed on embryogenic culture medium+/−100 mg/L chlorsulfuron."}, "[5]": {"tested_on": "35S/TripleOp/Pro::RFP reporter", "assay": "Maize callus and seedling RFP de-repression", "assay_type": "in vivo", "settings": "1 mg/l doxycycline; callus and plants with UBI::TetR expression cassette"}, "[6]": {"tested_on": "35S PRO:tetOp::moCRE with ESR(L13-2-23), lox66/lox71 AmCYAN/ZsYELLOW reporter", "assay": "Ethametsulfuron-induced Cre inversion in maize callus", "settings": "250 μg/L ethametsulfuron, one week"}, "[7]": {"tested_on": "35S PRO:tetOp::moCRE with ESR(L13-2-23), loxP AmCYAN/ZsYELLOW reporter", "assay": "Ethametsulfuron-induced Cre excision in maize callus", "settings": "maize calli, 250 μg/L ethametsulfuron, one week", "experimental": "(§2) Herbicide-resistant, blue fluorescent co-transformed calli were recovered and tested for SU-inducible excision. Calli were split onto media+/−250 μg/L ethametsulfuron."}, "[8]": {"tested_on": "35S PRO:tetOp::moCRE with ESR(L13-2-23), loxP AmCYAN/ZsYELLOW reporter", "assay": "Ethametsulfuron-induced Cre excision in rice callus", "settings": "rice calli, 250 μg/L ethametsulfuron, one week", "experimental": "as §2"}}}
{"smiles": "CCOC(=O)c1ccccc1S(=O)(=O)NC(=O)Nc1nc(Cl)cc(OC)n1", "note": "[chlorimuron, Chlorimuron-ethyl]", "values": [{"measurement": "potency as activator compared with Harmony®", "setting": "[1]", "value": "more potent activators than the starting ligand Harmony®"}]}
{"smiles": "COc1nc(C)nc(NC(=O)NS(=O)(=O)c2ccccc2Cl)n1", "note": "[chlorsulfuron, 2 chloro N((4 methoxy 6 methy 1,3,5 triazine 2 yl)aminocarbonyl)benzenesulfonamide]", "values": [{"measurement": "RFP Score", "setting": "[2]; 30 μg/l, six weeks", "value": 0}, {"measurement": "RFP fluorescence", "setting": "[2]; 100 μg/l, six weeks", "value": "small sectors of RFP fluorescence were observed"}, {"measurement": "RFP fluorescence", "setting": "[2]; 500 μg/l, six weeks", "value": "large segments of the calli were brightly fluorescing"}, {"measurement": "activity as inducer of the ethametsulfuron repressor, fold less", "setting": "[2]; in vivo", "value": "approximately 10 fold"}, {"measurement": "RFP Score", "setting": "[3]; 100 ppb", "value": "0-1"}, {"measurement": "RFP Score", "setting": "[3]; 500 ppb", "value": "2-3"}, {"measurement": "callus initiation from leaf pieces", "setting": "[4]", "value": "producing callus from the leaf segments"}, {"measurement": "potency as activator compared with Harmony®", "setting": "[1]", "value": "more potent activators than the starting ligand Harmony®"}]}
{"smiles": "C[C@H]1c2cccc(O)c2C(=O)C2=C(O)[C@]3(O)C(=O)C(C(N)=O)=C(O)[C@@H](N(C)C)[C@@H]3[C@@H](O)[C@@H]21", "note": "[doxycycline]", "values": [{"measurement": "induction period", "setting": "[5]", "value": "5 to 6", "unit": "days"}]}
{"smiles": "CCOc1nc(NC)nc(NC(=O)NS(=O)(=O)c2ccccc2C(=O)OC)n1", "note": "[ethametsulfuron, Ethametsulfuron-methyl]", "values": [{"measurement": "SU-inducible inversion", "setting": "[6]", "value": "sectors exhibiting only yellow fluorescent"}, {"measurement": "level of RFP induction, comparison of ligands", "setting": "[3]; 100 and 500 ppb", "value": "induced to a greater level than chlorsulfuron"}, {"measurement": "RFP Score", "setting": "[3]; 100 ppb", "value": "1-2"}, {"measurement": "RFP Score", "setting": "[3]; 500 ppb", "value": 4}, {"measurement": "SU-inducible excision", "setting": "[7]", "value": "yellow fluorescent sectors were observed"}, {"measurement": "SU-inducible excision", "setting": "[8]", "value": "yellow fluorescent sectors were observed"}, {"measurement": "potency as activator compared with Harmony®", "setting": "[1]", "value": "more potent activators than the starting ligand Harmony®"}]}
